Data taken from patent US20240209011A1, “HETEROAROMATIC PHOSPHONIUM SALTS FOR TREATING CANCER” (FLORATEK PHARMA S.A., priority 2021, published 2024).

How the values were obtained:
Assay type in all cases: cell-based
ST-02-0007 = assay: PDX-derived cell culture cytotoxicity (CellTiter-Glo); settings: 120 h; stomach PDX ST-02-0007; absolute IC50; 5 days
Procedure: (§1) PDX-derived cell cultures were obtained from tumors explanted from mice and isolated by mechanical and enzymatic dissociation. […] Cells were harvested and seeded in 96-wells plates at a density of 1.25 to 5×10^3 cells/well for cytotoxicity assays. Cells were incubated 48 h at 37° C. prior to addition of test molecules and vehicle (DMSO, 0.1%) at desired final concentrations. Cell viability was assessed before drugs' addition (To) and 5 days after test molecules addition by measuring ATP cell content using CellTiter-Glo® Luminescent Cell Viability Assay (Promega) according to the manufacturer's instructions. Luciferase activity was measured on a luminometer (PerkinElmer® EnVision™). Each concentration of compounds was tested in triplicate.
(§2) Viability was calculated as a percentage of ATP value compared to vehicle treated controls.
(§3) For PDX primary cell cultures, the tumour tissue was washed with PBS containing antibiotic-antimycotic and non-tumour tissue and necrotic tumour tissues were separated. The tumour tissue was transferred to a new dish and cut into 1-2 mm^3 fragments, resuspended in RPMI-1640 medium and centrifuged at 1,200 rpm for 6 min at room temperature. The pelleted material was resuspended with 15 mL of Tumour Cell Digestion Solution and incubated at 37° C. for 1 hour with agitation. Following further addition of media, centrifugation and passage through a […] cell strainer, the homogenous cell mixture was layered onto 15 mL of Ficoll-Paque PLUS in a 50 mL conical tube and centrifuged for 15 min at 1,600 rpm. The interface cells were collected, washed with media, separated by centrifugation at 1,200 rpm. The cell pellet was resuspended in serum free media supplemented with growth factors. 10,000 cells/wells were plated in a 96 well plate and incubated at 37° C., 5% CO2, 95% air and 100% relative humidity overnight. The cytotoxicity assay was conducted as above. IC50 values represent absolute IC50.

CH-17-0091 = assay: as above; settings: 120 h; bile duct PDX CH-17-0091; absolute IC50; 5 days
Procedure: as §1, §2, §3

LU-01-0025 = assay: as above; settings: 120 h; lung PDX LU-01-0025; absolute IC50; 5 days
Procedure: as §1, §2, §3

BR-05-0014E = assay: as above; settings: 120 h; breast PDX BR-05-0014E; absolute IC50; 5 days
Procedure: as §1, §2, §3

ST-02-0012 = assay: as above; settings: 120 h; stomach PDX ST-02-0012; absolute IC50; 5 days
Procedure: as §1, §2, §3

HN-13-0020 = assay: as above; settings: 120 h; head and neck PDX HN-13-0020; absolute IC50; 5 days
Procedure: as §1, §2, §3

ST-02-0173 = assay: as above; settings: 120 h; stomach PDX ST-02-0173; absolute IC50; 5 days
Procedure: as §1, §2, §3

CO-04-0722 = assay: as above; settings: 120 h; colon PDX CO-04-0722; absolute IC50; 5 days
Procedure: as §1, §2, §3

LU-01-0004 = assay: as above; settings: 120 h; lung PDX LU-01-0004; absolute IC50; 5 days
Procedure: as §1, §2, §3

PC-07-0059 = assay: as above; settings: 120 h; pancreatic PDX PC-07-0059; absolute IC50; 5 days
Procedure: as §1, §2, §3

CO-04-0701 = assay: as above; settings: 120 h; colon PDX CO-04-0701; absolute IC50; 5 days
Procedure: as §1, §2, §3

LU-01-0010 = assay: as above; settings: 120 h; lung PDX LU-01-0010; absolute IC50; 5 days
Procedure: as §1, §2, §3

ES-06-0002 = assay: as above; settings: 120 h; esophagus PDX ES-06-0002; absolute IC50; 5 days
Procedure: as §1, §2, §3

LU-01-0604 = assay: as above; settings: 120 h; lung PDX LU-01-0604; absolute IC50; 5 days
Procedure: as §1, §2, §3

EN-11-0101 = assay: as above; settings: 120 h; endometrial PDX EN-11-0101; absolute IC50; 5 days
Procedure: as §1, §2, §3

CO-04-0700 = assay: as above; settings: 120 h; colon PDX CO-04-0700; absolute IC50; 5 days
Procedure: as §1, §2, §3

KI-12-0062 = assay: as above; settings: 120 h; kidney PDX KI-12-0062; absolute IC50; 5 days
Procedure: as §1, §2, §3

ME-21-0028 = assay: as above; settings: 120 h; skin melanoma PDX ME-21-0028; absolute IC50; 5 days
Procedure: as §1, §2, §3

PC-07-0045 = assay: as above; settings: 120 h; pancreatic PDX PC-07-0045; absolute IC50; 5 days
Procedure: as §1, §2, §3

BR-05-0399 = assay: as above; settings: 120 h; breast PDX BR-05-0399; absolute IC50; 5 days
Procedure: as §1, §2, §3

ES-06-0122 = assay: as above; settings: 120 h; esophagus PDX ES-06-0122; absolute IC50; 5 days
Procedure: as §1, §2, §3

LY-24-0340 = assay: as above; settings: 120 h; lymphoma PDX LY-24-0340; absolute IC50; 5 days
Procedure: as §1, §2, §3

ST-02-0322 = assay: as above; settings: 120 h; stomach PDX ST-02-0322; absolute IC50; 5 days
Procedure: as §1, §2, §3

LU-01-0027 = assay: as above; settings: 120 h; lung PDX LU-01-0027; absolute IC50; 5 days
Procedure: as §1, §2, §3

stomach PDX = assay: Activity against stomach PDX; settings: stomach PDX growth; summary of Table 23
Procedure: as §1, §2, §3

Row | SMILES | IC50 (ST-02-0007) | IC50 (CH-17-0091) | IC50 (LU-01-0025) | IC50 (BR-05-0014E) | IC50 (ST-02-0012) | IC50 (HN-13-0020) | IC50 (ST-02-0173) | IC50 (CO-04-0722) | IC50 (LU-01-0004) | IC50 (PC-07-0059) | IC50 (CO-04-0701) | IC50 (LU-01-0010) | IC50 (ES-06-0002) | IC50 (LU-01-0604) | IC50 (EN-11-0101) | IC50 (CO-04-0700) | IC50 (KI-12-0062) | IC50 (ME-21-0028) | IC50 (PC-07-0045) | IC50 (BR-05-0399) | further results
1 | CCNC(=O)Oc1ccc2c(=O)cc(-c3ccc(CCCC[P+](c4ccccc4)(c4ccccc4)c4ccccc4)cc3)oc2c1OC(=O)NCC.[Br-] [SND124, 4-[4-[7,8-Bis(ethylcarbamoyloxy)-4-oxo-chromen-2-yl]phenyl]-butyltriphenylphosphonium bromide] | 10.2 µM | 5.4 µM | 4.2 µM | 7.2 µM | 8.2 µM | 2 µM | 11.3 µM | 3.2 µM | 7.1 µM | 4.2 µM | 21.8 µM | 7 µM | 5.6 µM | 7.8 µM | 9.6 µM | 2.3 µM | 8.5 µM | 7.7 µM | 7 µM | 5.2 µM | IC50 (ES-06-0122): 8.5 µM; IC50 (LY-24-0340): 3.7 µM; IC50 (ST-02-0322): 10.6 µM; IC50 (LU-01-0027): 9.3 µM; IC50 (stomach PDX): < 20 µM
2 | CCNC(=O)Oc1ccc2c(=O)cc(-c3ccc(CCCC[P+](c4ccccc4)(c4ccccc4)c4ccccc4)cc3)oc2c1O.[Br-] [SND126A, 4-[4-[7-(Ethylcarbamoyloxy)-8-hydroxy-4-oxo-chromen-2-yl]phenyl]butyltriphenylphosphonium bromide] | 10.7 µM | 7.2 µM | 5.3 µM | 7.7 µM | 8.9 µM | 2.7 µM | 14.7 µM | 3.4 µM | 8.4 µM | 4.9 µM | > 30 µM | 7.6 µM | 9.3 µM | 8.2 µM | 10.2 µM | 2.3 µM | 11 µM | 8 µM | 7.7 µM | 6.5 µM | IC50 (ES-06-0122): 8.3 µM; IC50 (LY-24-0340): 4.1 µM; IC50 (ST-02-0322): 9.8 µM; IC50 (LU-01-0027): 12 µM; IC50 (stomach PDX): < 20 µM
3 | O=c1cc(-c2ccc(CCCC[P+](c3ccccc3)(c3ccccc3)c3ccccc3)cc2)oc2c3c(ccc12)OCO3.[Br-] [SND123, 4-[4-(6-oxo-[1,3]dioxolo[4,5-h]chromen-8-yl)phenyl]butyl-triphenylphosphonium bromide] | 1.5 µM | 3 µM | 2.4 µM | 0.98 µM | 0.3 µM | 1.5 µM | 2.2 µM | 2.1 µM | 3 µM | 2.7 µM | 3.4 µM | 0.8 µM | 2.9 µM | 0.35 µM | 1.8 µM | 2.6 µM | 3 µM | 0.8 µM | 4 µM | 2.1 µM | IC50 (ES-06-0122): 4.5 µM; IC50 (LY-24-0340): 0.4 µM; IC50 (ST-02-0322): 5.2 µM; IC50 (LU-01-0027): 5.9 µM; IC50 (stomach PDX): < 20 µM
4 | COc1c(O)ccc2c(=O)cc(-c3ccc(CCCC[P+](c4ccccc4)(c4ccccc4)c4ccccc4)cc3)oc12.[Br-] [SND140, (4-(4-(7-hydroxy-8-methoxy-4-oxo-4H-chromen-2-yl)phenyl)butyl)triphenylphosphonium bromide] | 12 µM | > 50 µM | 10.5 µM | 10.4 µM | 4.9 µM | 9.1 µM | 9.8 µM | 11.6 µM | 11.7 µM | 20.4 µM | 13.8 µM | 3 µM | 9.66 µM | 7.7 µM | 6.2 µM | 12.8 µM | 16.8 µM | 1.1 µM | 13.2 µM | 6 µM | IC50 (ES-06-0122): 13.5 µM; IC50 (LY-24-0340): 4.1 µM; IC50 (ST-02-0322): 13.3 µM; IC50 (LU-01-0027): 16 µM; IC50 (stomach PDX): < 20 µM
